Earlier results in patent US20240293347A1, “COMPOSITION AND METHODS OF TREATMENT USING TRANSDERMAL HORMONE SUPPLEMENTATION” (Xygenyx Inc., priority 2023, published 2024).

Columns and labels:
[1] = used as penetration enhancer for transdermal drugs
[2] = in the human body

Molecule: CC12CCC(CC1)C(C)(C)O2 [eucalyptol, 1,8-epoxy-p-menthane]
- increase of drug uptake via the transdermal route (factor) [1]: more than 10

Molecule: CC(C)[C@@H]1CC[C@@H](C)C[C@H]1O [Menthol]
- increase of drug uptake via the transdermal route (factor) [1]: ≥ 10

Molecule: HGH: hormone comprising a peptide chain that is synthesized in the pituitary gland
- biological half-life [2]: 10-20 minutes
